Results on two compounds are retold here after patent US20210038545A1 (priority 2018, published 2021).

For test [1], the system named is respiratory bacterial (including pneumococcal) and fungal infections. The note with it: Ciarlo et al., 2016; cited from earlier work.
Test [2] relates to S. pneumoniae. The note with it: mice colonized with IAV microbiota; 30 hrs after challenge; FIG. 4A.
The test system of test [3] is S. pneumoniae. The note with it: IAV (H3N2)-infected mice as printed; acetate from day 2 p.i.; 1×10^3 CFUs at 7 dpi; 30 hrs later; FIG. 4B.
Test [4] deals with S. pneumoniae. The note with it: mouse, in vivo.

With `CCC(=O)O` [propionate], the “modulation of host defenses against respiratory bacterial and fungal infections” value in test [1] was “failed to modulate”.
Regarding `CC(=O)O` [acetate], in the test on S. pneumoniae [2], the “number of pneumococci in lungs” value is on record as “lower number” and the “systemic dissemination of pneumococci out of the lungs” value was “lowered”. Moreover, in the test on S. pneumoniae [3], the “bacterial load in the lung” value is recorded as “significant lower” and the “bacterial load in the spleen” value is given as “significant lower”. In the test on S. pneumoniae serotype 1 (Ffa2−/− mice relative to FFA2-competent mice, FIG. 1B), the “protective effect of acetate in Ffa2−/− mice” value is “significantly reduced”. The “number of bacteria in the spleen” value with S. pneumoniae serotype 1 (acetate 200 mM drinking water for five days before 1×10^6 CFUs i.n., 30 hours after challenge, FIG. 1A lower panel) is “lowered”. In addition, the “number of bacteria in the lungs” value with S. pneumoniae serotype 1 (acetate 200 mM drinking water for five days before 1×10^6 CFUs i.n., 30 hours after challenge, vs vehicle, FIG. 1A upper panel) was “significantly reduced”. In addition, in the test on S. pneumoniae [4], the “bacterial loads in the lung” value is on record as “significantly reduced”, the “bacterial loads in the spleen” value is recorded as “significantly reduced” and the “survival rate of double-infected mice” value was “significant enhancement”.
